Results taken from paper PMC3777854 (Journal of clinical pharmacology, 2013).

Tested on: CYP3A
Assay: Effect of brentuximab vedotin on midazolam PK
Conditions: human, plasma

Compound Cc1ncc2n1-c1ccc(Cl)cc1C(c1ccccc1F)=NC2 [Midazolam, midazolam] has a Tmax (intravenous) of 2.52 min, a half-life (intravenous) of 5.69 h and a Tmax (intravenous, 1 mg) of 3 min. For the same compound, the AUC(0-inf) (iv, 1 mg) was 79 ng·h/mL, the Cmax (iv, 1 mg) was 73 ng/mL and the half-life (iv, 1 mg) was 6.4 h.
